From PubChem BioAssay AID2061108 (Research group of Professor Matthew Todd, School of …, 2025)

tested on: A. baumannii ATCC 17978 + PMBN growth inhibition, 100 uM; experiment: microbial growth inhibition plus red cell haemolysis – Idler compounds, first plate, PMBN-permeabilized strains, profiling panel (AID 2061108); settings: A. baumannii plus PMBN growth inhibition, 100 µM; stronger effect = higher value

Compound | inhibition [%]
COc1cc2nc(Nc3cc(C)[nH]n3)nc(NC3CCN(C(=O)OC(C)(C)C)CC3)c2cc1OC | 70.4
N#Cc1c(N2C[C@@H](CC(N)=O)[C@H](O)C2)nc2ccccc2c1C(F)(F)F | 28.3
CCC(C)C(N)C(=O)NS(=O)(=O)c1cccc(-c2cc3ncnc(N)c3s2)c1 (stereo not drawn) | -15.9
COc1ccc2c(c1)nc(-c1c[nH]c3cc(N4CCOCC4)ccc13)c1[nH]ccc12 | 95.9
CC(N)C(=O)NS(=O)(=O)c1cccc(-c2cc3ncnc(N)c3s2)c1 (stereo not drawn) | -25.6
O=C(Nc1ccc(OC2CCCCC2)cc1)c1ccc(-c2nn[nH]n2)cc1 | 17.1
Nc1ncnc2cc(-c3cccc(S(=O)(=O)NC(=O)C4CCCN4)c3)sc12 (stereo not drawn) | -10.6
N#Cc1c(Cl)nc2ccccc2c1C(F)(F)F | 31.1
CC(=O)NCCC(=O)NNC(=O)c1cc(-c2ccccn2)nc2ccccc12 | 4.14
COc1cc(OC)cc(C2(NC(=O)c3ccc(N4CCOCC4)cc3)COC2)c1 | 19.4
N#Cc1ccc(NC2Cc3cccc(O)c3C2)cc1Cl (stereo not drawn) | 101
CCn1c(SCC(=O)N(C)c2ccccc2)nnc1-c1cn(C)nc1OC | 4.29
O=S(=O)(Nc1ccc(Oc2ccccc2)cc1)c1cccc(C(F)(F)F)c1 | 67.9
Oc1ccc(CN2CCN(c3ccccc3F)CC2)c2cccnc12 | 18.1
O=C(NC1(c2ccc(Cl)cc2)COC1)c1ccc(N2CCCCC2)cc1 | 13.9
COc1cc2nc(Nc3cc(C)[nH]n3)nc(Nc3cc(C)[nH]n3)c2cc1OC | 19.6
O=C(N/N=C/C1CCOCC1)c1ccncc1 | 13.2
O=C(NC1(c2ccc(Br)cc2)COC1)c1ccc(N2CCOCC2)cc1 | 17.5
O=S(=O)(F)c1ncc(Cl)cc1Br | 5.94
O=S(=O)(F)c1cccc(NCc2ccc(F)cc2)n1 | 16.7
C=CC(=O)N1CCC[C@H](CC(=O)O)C1 | 22.4
O=C(NCCn1ccc2ccccc21)Nc1c[nH]c2ccccc12 | 55
COc1cc2nc(NCCCN(C)C)nc(N3CC(N(C)C)C3)c2cc1OC | 29.9
CS(=O)(=O)CCCNC[C@@H](O)c1ccccc1 | 20.9
COc1ccc(-c2nc(N3CCC(N(C)C)C3)c3cc(OC)c(OC)cc3n2)cc1 (stereo not drawn) | 39.9
O=C(Nc1ccc(-c2nn[nH]n2)cc1)c1ccc(Oc2ccccc2)cc1 | 16.4
O=C(N/N=C/c1ccncc1O)c1ccncc1 | 22.8
CN(C)C(=O)c1cncc(-c2cccc(C3(C#N)CC3)c2)c1 | 23.7

tested on: A. baumannii ATCC 17978 growth inhibition, 100 uM; experiment: as above; settings: S. aureus ATCC 9144 growth inhibition; measured here: A. baumannii ATCC 17978; at 100 µM; stronger effect = higher value

Compound | inhibition [%]
COc1cc2nc(Nc3cc(C)[nH]n3)nc(NC3CCN(C(=O)OC(C)(C)C)CC3)c2cc1OC | 48.6
N#Cc1c(N2C[C@@H](CC(N)=O)[C@H](O)C2)nc2ccccc2c1C(F)(F)F | -4.88
CCC(C)C(N)C(=O)NS(=O)(=O)c1cccc(-c2cc3ncnc(N)c3s2)c1 (stereo not drawn) | -17.8
COc1ccc2c(c1)nc(-c1c[nH]c3cc(N4CCOCC4)ccc13)c1[nH]ccc12 | 53.1
CC(N)C(=O)NS(=O)(=O)c1cccc(-c2cc3ncnc(N)c3s2)c1 (stereo not drawn) | -14.5
O=C(Nc1ccc(OC2CCCCC2)cc1)c1ccc(-c2nn[nH]n2)cc1 | -15.8
Nc1ncnc2cc(-c3cccc(S(=O)(=O)NC(=O)C4CCCN4)c3)sc12 (stereo not drawn) | -13
N#Cc1c(Cl)nc2ccccc2c1C(F)(F)F | 3.86
CC(=O)NCCC(=O)NNC(=O)c1cc(-c2ccccn2)nc2ccccc12 | -4.58
COc1cc(OC)cc(C2(NC(=O)c3ccc(N4CCOCC4)cc3)COC2)c1 | 2.38
N#Cc1ccc(NC2Cc3cccc(O)c3C2)cc1Cl (stereo not drawn) | 65.2
CCn1c(SCC(=O)N(C)c2ccccc2)nnc1-c1cn(C)nc1OC | -2.53
O=S(=O)(Nc1ccc(Oc2ccccc2)cc1)c1cccc(C(F)(F)F)c1 | 59.2
Oc1ccc(CN2CCN(c3ccccc3F)CC2)c2cccnc12 | 14.6
O=C(NC1(c2ccc(Cl)cc2)COC1)c1ccc(N2CCCCC2)cc1 | -22.2
COc1cc2nc(Nc3cc(C)[nH]n3)nc(Nc3cc(C)[nH]n3)c2cc1OC | 18.8
O=C(N/N=C/C1CCOCC1)c1ccncc1 | 0.357
O=C(NC1(c2ccc(Br)cc2)COC1)c1ccc(N2CCOCC2)cc1 | 1.43
O=S(=O)(F)c1ncc(Cl)cc1Br | 0.595
O=S(=O)(F)c1cccc(NCc2ccc(F)cc2)n1 | -3.33
C=CC(=O)N1CCC[C@H](CC(=O)O)C1 | 0
O=C(NCCn1ccc2ccccc21)Nc1c[nH]c2ccccc12 | 1.2
COc1cc2nc(NCCCN(C)C)nc(N3CC(N(C)C)C3)c2cc1OC | 17.3
CS(=O)(=O)CCCNC[C@@H](O)c1ccccc1 | -0.12
COc1ccc(-c2nc(N3CCC(N(C)C)C3)c3cc(OC)c(OC)cc3n2)cc1 (stereo not drawn) | -3.73
O=C(Nc1ccc(-c2nn[nH]n2)cc1)c1ccc(Oc2ccccc2)cc1 | -0.833
O=C(N/N=C/c1ccncc1O)c1ccncc1 | 12.6
CN(C)C(=O)c1cncc(-c2cccc(C3(C#N)CC3)c2)c1 | 3.37

tested on: C. albicans NCPF 3281 growth inhibition, 100 uM; experiment: as above; settings: S. aureus ATCC 9144 growth inhibition; measured here: C. albicans NCPF 3281; at 100 µM; stronger effect = higher value

Compound | inhibition [%]
COc1cc2nc(Nc3cc(C)[nH]n3)nc(NC3CCN(C(=O)OC(C)(C)C)CC3)c2cc1OC | -108
N#Cc1c(N2C[C@@H](CC(N)=O)[C@H](O)C2)nc2ccccc2c1C(F)(F)F | -24.4
CCC(C)C(N)C(=O)NS(=O)(=O)c1cccc(-c2cc3ncnc(N)c3s2)c1 (stereo not drawn) | -21.7
COc1ccc2c(c1)nc(-c1c[nH]c3cc(N4CCOCC4)ccc13)c1[nH]ccc12 | -104
CC(N)C(=O)NS(=O)(=O)c1cccc(-c2cc3ncnc(N)c3s2)c1 (stereo not drawn) | -29.6
O=C(Nc1ccc(OC2CCCCC2)cc1)c1ccc(-c2nn[nH]n2)cc1 | 6.07
Nc1ncnc2cc(-c3cccc(S(=O)(=O)NC(=O)C4CCCN4)c3)sc12 (stereo not drawn) | -16.7
